Data published in patent US9730944B2, “Antiviral activity of novel bicyclic heterocycles” (priority 2010, dated 2017).
Converted amounts (≈) assume the structure as drawn.

Legend:
[1] = test system: hRV-2; experiment: Rhinovirus type 2 antiviral assay in Hela Rh cells, MTS readout; format: cell-based, Human rhinovirus; details: Rhinovirus A, HRV2, HeLa Rh, Hela Rh cells; read-out: hRV-2 EC50
[2] = test system: hRV-70; experiment: Rhinovirus type 70 antiviral assay in Hela Rh cells, MTS readout; format: cell-based, Human rhinovirus; details: Human rhinovirus sp., HRV70, HeLa Rh, Hela Rh cells; read-out: hRV-70 EC50
[3] = test system: hRV-85; experiment: Rhinovirus type 85 antiviral assay in Hela Rh cells, MTS readout; format: cell-based, Human rhinovirus; details: Human rhinovirus sp., HRV85, HeLa Rh, Hela Rh cells; read-out: hRV-85 EC50
[4] = test system: hRV-86; experiment: Rhinovirus type 86 antiviral assay in Hela Rh cells, MTS readout; format: cell-based, Human rhinovirus; details: Human rhinovirus sp., HRV86, HeLa Rh, Hela Rh cells; read-out: hRV-86 EC50
[5] = Cytostatic/cytotoxic effect in Hela Rh cells (rhinovirus methodology, MTS); details: human, CC50, Hela Rh cells
[6] = test system: hRV-15; experiment: Rhinovirus type 15 antiviral assay in Hela Rh cells, MTS readout; format: cell-based, Human rhinovirus; details: Human rhinovirus sp., HRV15, HeLa Rh, Hela Rh cells; read-out: hRV-15 EC50
[7] = test system: hRV-29; experiment: Rhinovirus type 29 antiviral assay in Hela Rh cells, MTS readout; format: cell-based; details: Human rhinovirus sp., HRV29, HeLa Rh, Hela Rh cells; read-out: hRV-29 EC50
[8] = test system: hRV-42; experiment: Rhinovirus type 42 antiviral assay in Hela Rh cells, MTS readout; format: cell-based, Human rhinovirus; details: Human rhinovirus sp., HRV42, HeLa Rh, Hela Rh cells; read-out: hRV-42 EC50
[9] = test system: hRV-45; experiment: Rhinovirus type 45 antiviral assay in Hela Rh cells, MTS readout; format: cell-based, Human rhinovirus; details: Human rhinovirus sp., HRV45, HeLa Rh, Hela Rh cells; read-out: hRV-45 EC50
[10] = test system: hRV-39; experiment: Rhinovirus type 39 antiviral assay in Hela Rh cells, MTS readout; format: cell-based, Human rhinovirus; details: Human rhinovirus sp., HRV39, HeLa Rh, Hela Rh cells; read-out: hRV-39 EC50
[11] = test system: hRV-14; experiment: Rhinovirus type 14 antiviral assay in Hela Rh cells, MTS readout; format: cell-based, Human rhinovirus; details: Rhinovirus B, HRV14, HeLa Rh, Hela Rh cells; read-out: hRV-14 EC50
[12] = test system: hRV-9; experiment: Rhinovirus type 9 antiviral assay in Hela Rh cells, MTS readout; format: cell-based, Human rhinovirus; details: Human rhinovirus sp., HRV9, HeLa Rh, Hela Rh cells; read-out: hRV-9 EC50
[13] = test system: hRV-41; experiment: Rhinovirus type 41 antiviral assay in Hela Rh cells, MTS readout; format: cell-based, Human rhinovirus; details: Human rhinovirus sp., HRV41, HeLa Rh, Hela Rh cells; read-out: hRV-41 EC50
[14] = test system: hRV-63; experiment: Rhinovirus type 63 antiviral assay in Hela Rh cells, MTS readout; format: cell-based, Human rhinovirus; details: Human rhinovirus sp., HRV63, HeLa Rh, Hela Rh cells; read-out: hRV-63 EC50
[15] = test system: hRV-72; experiment: Rhinovirus type 72 antiviral assay in Hela Rh cells, MTS readout; format: cell-based, Human rhinovirus; details: Human rhinovirus sp., HRV72, HeLa Rh, Hela Rh cells; read-out: hRV-72 EC50

With `Nc1nc(N2CCN(C(=O)COc3ccc(Cl)cc3)CC2)c2nc(CCCCc3ccc(F)cc3)sc2n1` [Example 292, 1-(4-(5-amino-2-(4-(4-fluorophenyl)butyl)thiazolo[5,4-d]pyrimidin-7-yl)piperazin-1-yl)-2-(4-chlorophenoxy)ethanone] the EC50 [1] was 13.6 µg/mL (≈ 24.6 µM), the EC50 [2] was over 50 µg/mL and the EC50 [3] was 10.3 µg/mL (≈ 18.6 µM). It also gave an EC50 [4] of over 50 µg/mL, a CC50 [5] of over 50 µg/mL and an EC50 [6] of over 50 µg/mL. The EC50 [7] was over 50 µg/mL, the EC50 [8] was over 50 µg/mL and the EC50 [9] was over 50 µg/mL. The EC50 [10] was 39.4 µg/mL (≈ 70.9 µM), the EC50 [11] was over 50 µg/mL and the EC50 [12] was over 50 µg/mL. It also gave an EC50 [13] of over 50 µg/mL, an EC50 [14] of over 50 µg/mL and an EC50 [15] of over 50 µg/mL.

Molecule `Nc1nc(N2CCN(C(=O)COc3ccc(OC(F)(F)F)cc3)CC2)c2nc(CCc3ccc(F)cc3)sc2n1` [Example 226, 1-(4-(5-amino-2-(4-fluorophenethyl)thiazolo[5,4-d]pyrimidin-7-yl)piperazin-1-yl)-2-(4-(trifluoromethoxy)phenoxy)ethanone] has an EC50 [1] of over 50 µg/mL, an EC50 [2] of over 50 µg/mL and an EC50 [3] of 29.9 µg/mL (≈ 51.9 µM). The EC50 [4] was over 50 µg/mL, the CC50 [5] was over 50 µg/mL and the EC50 [6] was over 50 µg/mL. It also gave an EC50 [7] of over 50 µg/mL, an EC50 [8] of over 50 µg/mL and an EC50 [9] of over 50 µg/mL. The EC50 [10] was over 50 µg/mL, the EC50 [11] was over 50 µg/mL and the EC50 [12] was over 50 µg/mL. For the same molecule, the EC50 [13] was over 50 µg/mL, the EC50 [14] was over 50 µg/mL and the EC50 [15] was over 50 µg/mL.

Molecule `Cc1ccc(CCc2nc3c(N4CCN(C(=O)COc5ccc(Br)cc5)CC4)nc(N)nc3s2)cc1` [Example 258, 1-(4-(5-amino-2-(4-methylphenethyl)thiazolo[5,4-d]pyrimidin-7-yl)piperazin-1-yl)-2-(4-bromophenoxy)ethanone] has an EC50 [1] of 9.58 µg/mL (≈ 16.9 µM), an EC50 [2] of over 50 µg/mL and an EC50 [3] of 8.33 µg/mL (≈ 14.7 µM). For the same molecule, the EC50 [4] was over 50 µg/mL, the CC50 [5] was 46.2 µg/mL (≈ 81.5 µM) and the EC50 [6] was over 50 µg/mL. It also gave an EC50 [7] of over 50 µg/mL, an EC50 [8] of over 50 µg/mL and an EC50 [9] of 35.4 µg/mL (≈ 62.3 µM). For the same molecule, the EC50 [10] was 13 µg/mL (≈ 22.9 µM), the EC50 [11] was over 50 µg/mL and the EC50 [12] was over 50 µg/mL. It also gave an EC50 [13] of over 50 µg/mL, an EC50 [14] of 34 µg/mL (≈ 60 µM) and an EC50 [15] of over 50 µg/mL.

In the case of `Nc1nc(N2CCN(C(=O)COc3cccc(Cl)c3)CC2)c2nc(CCc3ccc(F)cc3)sc2n1` [Example 228, 1-(4-(5-amino-2-(4-fluorophenethyl)thiazolo[5,4-d]pyrimidin-7-yl)piperazin-1-yl)-2-(3-chlorophenoxy)ethanone], the EC50 [1] is reported as 1.27 µg/mL (≈ 2.41 µM), the EC50 [2] is reported as 10 µg/mL (≈ 19.1 µM) and the EC50 [3] is reported as 4.14 µg/mL (≈ 7.86 µM). The EC50 [4] was 4.86 µg/mL (≈ 9.22 µM), the CC50 [5] was over 50 µg/mL and the EC50 [6] was 43.9 µg/mL (≈ 83.2 µM). The EC50 [7] was 1.38 µg/mL (≈ 2.62 µM), the EC50 [10] was 1.28 µg/mL (≈ 2.43 µM) and the EC50 [11] was 9.21 µg/mL (≈ 17.5 µM). It also gave an EC50 [12] of 1.16 µg/mL (≈ 2.2 µM), an EC50 [13] of over 50 µg/mL and an EC50 [14] of 13.8 µg/mL (≈ 26.1 µM). For the same molecule, the EC50 [15] was over 50 µg/mL.

Molecule `COc1ccc(OCC(=O)N2CCN(c3nc(N)nc4sc(-c5ccc(F)cc5)nc34)CC2)cc1` [Example 234, 1-(4-(5-amino-2-(4-fluorophenyl)thiazolo[5,4-d]pyrimidin-7-yl)piperazin-1-yl)-2-(4-methoxyphenoxy)ethanone] has an EC50 [1] of 0.06 µg/mL (≈ 0.121 µM), an EC50 [2] of over 50 µg/mL and an EC50 [3] of under 0.39 µg/mL. It also gave an EC50 [4] of over 50 µg/mL, a CC50 [5] of over 50 µg/mL and an EC50 [6] of 29.3 µg/mL (≈ 59.2 µM). It also gave an EC50 [7] of 0.04 µg/mL (≈ 0.0809 µM), an EC50 [8] of 30.1 µg/mL (≈ 60.9 µM) and an EC50 [10] of 0.08 µg/mL (≈ 0.162 µM). The EC50 [11] was over 50 µg/mL, the EC50 [13] was 25.5 µg/mL (≈ 51.6 µM) and the EC50 [14] was 1.32 µg/mL (≈ 2.67 µM). For the same molecule, the EC50 [15] was over 50 µg/mL.

With `COc1ccc(OCC(=O)N2CCN(c3nc(N)nc4sc(CCc5ccc(C)cc5)nc34)CC2)cc1` [Example 259, 1-(4-(5-amino-2-(4-methylphenethyl)thiazolo[5,4-d]pyrimidin-7-yl)piperazin-1-yl)-2-(4-methoxyphenoxy)ethanone] the EC50 [1] was 0.48 µg/mL (≈ 0.925 µM), the EC50 [2] was over 50 µg/mL and the EC50 [3] was 1.52 µg/mL (≈ 2.93 µM). It also gave a CC50 [5] of over 50 µg/mL, an EC50 [6] of over 50 µg/mL and an EC50 [7] of 0.41 µg/mL (≈ 0.791 µM). For the same molecule, the EC50 [8] was over 50 µg/mL, the EC50 [9] was 2.56 µg/mL (≈ 4.94 µM) and the EC50 [10] was 0.32 µg/mL (≈ 0.617 µM). For the same molecule, the EC50 [11] was over 50 µg/mL, the EC50 [12] was 0.35 µg/mL (≈ 0.675 µM) and the EC50 [13] was over 50 µg/mL. For the same molecule, the EC50 [14] was 18.3 µg/mL (≈ 35.3 µM) and the EC50 [15] was over 50 µg/mL.
